IC50 data for 29 compounds are collected here from patent US10370343B2, “[6,6] Fused bicyclic HDAC8 inhibitors” (FORMA Therapeutics, Inc., priority 2015, dated 2019).

Assay [1] addresses T1, Recombinant N-terminal GST tag full-length human HDAC8 (Homo sapiens, UniProt Q9BY41).
T1 construct: Recombinant N-terminal GST tag full-length human HDAC8; purchased SignalChem H90-30G-1000; host or cells: baculovirus in Sf9 insect cells
T1 sequence (Q9BY41 1-377): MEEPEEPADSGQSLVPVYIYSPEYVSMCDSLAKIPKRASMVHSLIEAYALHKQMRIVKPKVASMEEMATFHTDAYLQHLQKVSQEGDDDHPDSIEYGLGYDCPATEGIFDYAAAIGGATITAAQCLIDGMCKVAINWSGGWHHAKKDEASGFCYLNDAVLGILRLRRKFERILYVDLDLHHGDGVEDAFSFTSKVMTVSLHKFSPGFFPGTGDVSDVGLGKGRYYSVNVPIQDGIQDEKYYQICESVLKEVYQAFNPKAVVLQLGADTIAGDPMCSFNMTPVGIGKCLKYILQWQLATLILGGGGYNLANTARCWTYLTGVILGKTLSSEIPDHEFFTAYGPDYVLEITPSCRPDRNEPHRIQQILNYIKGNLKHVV
Put plainly: HDAC8 probe binding assay, time resolved fluorescence (TRF) format. The note with it: compounds grouped by IC50 range (Table 2). A digest of the protocol:
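Probe-binding TRF assay using full-length N-GST human HDAC8 expressed in baculovirus-infected Sf9 cells, incubated 16 h at room temperature and read at 340 nm excitation, 485/535 nm emission. Percent inhibition was normalised to no-enzyme and DMSO controls. IC50 was obtained by 4-parameter logistic fit.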

In assay [2] the target is T2, Full length human recombinant HDAC8 protein (Homo sapiens, UniProt Q9BY41).
T2 construct: Full length human recombinant HDAC8 protein was expressed in baculoviral system; made in house
T2 sequence (Q9BY41 1-377): T1 sequence (Q9BY41 1-377)
Put plainly: In vitro histone deacetylase assay: enzymatic HDAC8 electrophoretic mobility shift assay. In kind it is biochemical. As to conditions: electrophoretic mobility shift assay; enzyme 1 nM; 2 μM fluorescently labeled peptide substrate RHKK(Ac)-NH2; 25° C.; 12 concentrations; read-out: HDAC8 IC50. On the technique in general: Mobility shift assays separate free from complexed probe on a gel.

As to `CCCCN1C(=O)COc2ccc(C(=O)NO)cc21` [Compound I-45, 4-butyl-N-hydroxy-3-oxo-3,4-dihydro-2H-benzo[b][1,4]oxazine-6-carboxamide], the IC50 in assay [1] and in assay [2] was 25 to 100 nM in each case.
Regarding `O=C(NO)c1ccc2c(c1)N(CCOCC1CC1)C(=O)CO2` [Compound I-50, 4-(2-(cyclopropylmethoxy)ethyl)-N-hydroxy-3-oxo-3,4-dihydro-2H-benzo[b][1,4]oxazine-6-carboxamide], the IC50 in assay [1] and in assay [2] was 25 to 100 nM each time.
For `O=C(NO)c1ccc2c(c1)N(CCOCC(F)(F)F)C(=O)CO2` [Compound I-53, N-hydroxy-3-oxo-4-(2-(2,2,2-trifluoroethoxy)ethyl)-3,4-dihydro-2H-benzo[b][1,4]oxazine-6-carboxamide], the half-maximal inhibitory concentration (IC50) in assay [1] and in assay [2] was 25 to 100 nM throughout.
As to `O=C(NO)c1ccc2c(c1)N(CCc1ccccc1)C(=O)CO2` [Compound I-58, N-hydroxy-3-oxo-4-phenethyl-3,4-dihydro-2H-benzo[b][1,4]oxazine-6-carboxamide], the IC50 in assay [1] and in assay [2] was 25 to 100 nM throughout.
For the compound `CC(C)CCN1C(=O)COc2ccc(C(=O)NO)cc21` [Compound I-59, N-hydroxy-4-isopentyl-3-oxo-3,4-dihydro-2H-benzo[b][1,4]oxazine-6-carboxamide], the IC50 in assay [1] and in assay [2] was 25 to 100 nM each time.
Take `COc1cccc(CN2C(=O)COc3ccc(C(=O)NO)cc32)c1` [Compound I-60, N-hydroxy-4-(3-methoxybenzyl)-3-oxo-3,4-dihydro-2H-benzo[b][1,4]oxazine-6-carboxamide]: the IC50 in assay [1] and in assay [2] was 25 to 100 nM in each case.
`O=C(NO)c1ccc2c(c1)N(Cc1ccc3nonc3c1)C(=O)CO2` [Compound I-62, 4-(benzo[c][1,2,5]oxadiazol-5-ylmethyl)-N-hydroxy-3-oxo-3,4-dihydro-2H-benzo[b][1,4]oxazine-6-carboxamide]: the IC50 (in general, the concentration at which inhibition is half-maximal) in assay [1] is 25 to 100 nM; in assay [2], under 25 nM.
Consider `O=C(NO)c1ccc2c(c1)N(Cc1ccc(Cl)cc1)C(=O)CO2` [Compound I-64, 4-(4-chlorobenzyl)-N-hydroxy-3-oxo-3,4-dihydro-2H-benzo[b][1,4]oxazine-6-carboxamide], for which the IC50 is at most 25 nM in assay [1] and under 25 nM in assay [2].
In the same order, the values of `Cc1cccc(CN2C(=O)COc3ccc(C(=O)NO)cc32)c1` [Compound I-68, N-hydroxy-4-(3-methylbenzyl)-3-oxo-3,4-dihydro-2H-benzo[b][1,4]oxazine-6-carboxamide] are at most 25 nM and 25 to 100 nM.
On to `Cc1cccc(CN2C(=O)COc3ccc(C(=O)NO)cc32)c1F` [Compound I-74, 4-(2-fluoro-3-methylbenzyl)-N-hydroxy-3-oxo-3,4-dihydro-2H-benzo[b][1,4]oxazine-6-carboxamide], for which the IC50 was at most 25 nM in assay [1] and under 25 nM in assay [2].
In the same order, the values of `Cc1nc(-c2ccccc2)sc1CN1C(=O)COc2ccc(C(=O)NO)cc21` [Compound I-76, N-hydroxy-4-((4-methyl-2-phenylthiazol-5-yl)methyl)-3-oxo-3,4-dihydro-2H-benzo[b][1,4]oxazine-6-carboxamide] are 25 to 100 nM and 25 to 100 nM.
The corresponding values for `O=C(NO)c1ccc2c(c1)N(Cc1cn(-c3ccccc3)nn1)C(=O)CO2` [Compound I-77, N-hydroxy-3-oxo-4-[(1-phenyl-1H-1,2,3-triazol-4-yl)methyl]-3,4-dihydro-2H-1,4-benzoxazine-6-carboxamide] are at most 25 nM and under 25 nM.
Consider `CS(=O)(=O)c1ccc(CN2CCS(=O)(=O)c3ccc(C(=O)NO)cc32)cc1` [Compound I-82, N-hydroxy-4-(4-(methylsulfonyl)benzyl)-3,4-dihydro-2H-benzo[b][1,4]thiazine-6-carboxamide-1,1-dioxide], for which the figures for the IC50 in assay [1] and in assay [2] were at most 25 nM and under 25 nM, respectively.
In the same order, the values of `CC(c1ccc(S(C)(=O)=O)cc1)N1C(=O)COc2ccc(C(=O)NO)cc21` (stereo not shown) [Compound I-94, N-hydroxy-4-(1-(4-(methylsulfonyl)phenyl)ethyl)-3-oxo-3,4-dihydro-2H-benzo[b][1,4]oxazine-6-carboxamide] are at most 25 nM and under 25 nM.
As to `CC(c1c(F)cccc1F)N1C(=O)COc2ccc(C(=O)NO)cc21` (stereo not shown) [Compound I-96, 4-(1-(2,6-difluorophenyl)ethyl)-N-hydroxy-3-oxo-3,4-dihydro-2H-benzo[b][1,4]oxazine-6-carboxamide], the IC50 in assay [1] and in assay [2] was 25 to 100 nM each time.
`COc1ccc(CN2C(=O)C(C)(C)Oc3ccc(C(=O)NO)cc32)cc1` [Compound I-98, N-hydroxy-4-(4-methoxybenzyl)-2,2-dimethyl-3-oxo-3,4-dihydro-2H-benzo[b][1,4]oxazine-6-carboxamide]: the IC50 in assay [1] and in assay [2] was 25 to 100 nM in each case.
For the compound `CCC1Oc2ccc(C(=O)NO)cc2N(Cc2ccc(OC)cc2)C1=O` (stereo not shown) [Compound I-99, 2-ethyl-N-hydroxy-4-(4-methoxybenzyl)-3-oxo-3,4-dihydro-2H-benzo[b][1,4]oxazine-6-carboxamide], the IC50 in assay [1] was at most 25 nM; in assay [2], under 25 nM.
In the same order, the values of `COc1ccc(CN2C(=O)C(C(C)C)Oc3ccc(C(=O)NO)cc32)cc1` (stereo not shown) [Compound I-100, N-hydroxy-2-isopropyl-4-(4-methoxybenzyl)-3-oxo-3,4-dihydro-2H-benzo[b][1,4]oxazine-6-carboxamide] are at most 25 nM and under 25 nM.
Consider `COc1ccc(CN2C(=O)C(c3ccccc3)Oc3ccc(C(=O)NO)cc32)cc1` (stereo not shown) [Compound I-101, N-hydroxy-4-(4-methoxybenzyl)-3-oxo-2-phenyl-3,4-dihydro-2H-benzo[b][1,4]oxazine-6-carboxamide], for which the IC50 in assay [1] was at most 25 nM; in assay [2] it was under 25 nM.
The corresponding values for `COc1ccc(CN2C(=O)C(Cc3ccccc3)Oc3ccc(C(=O)NO)cc32)cc1` (stereo not shown) [Compound I-102, 2-benzyl-N-hydroxy-4-(4-methoxybenzyl)-3-oxo-3,4-dihydro-2H-benzo[b][1,4]oxazine-6-carboxamide] are at most 25 nM and 25 to 100 nM.
The corresponding values for `COc1ccc(CN2C(=O)C(C(C)(C)C)Oc3ccc(C(=O)NO)cc32)cc1` (stereo not shown) [Compound I-103, 2-(tert-butyl)-N-hydroxy-4-(4-methoxybenzyl)-3-oxo-3,4-dihydro-2H-benzo[b][1,4]oxazine-6-carboxamide] are at most 25 nM and under 25 nM.
Consider `COc1ccc(CN2C(=O)C(CCN)Oc3ccc(C(=O)NO)cc32)cc1` (stereo not shown) [Compound I-104, 2-(2-aminoethyl)-N-hydroxy-4-(4-methoxybenzyl)-3-oxo-3,4-dihydro-2H-benzo[b][1,4]oxazine-6-carboxamide], for which the IC50 in assay [1] was at most 25 nM; in assay [2], 25 to 100 nM.
Take `O=C(NO)c1ccc2c(c1)N(Cc1ccccc1)CCO2` [Compound I-116, 4-benzyl-N-hydroxy-3,4-dihydro-2H-benzo[b][1,4]oxazine-6-carboxamide]: the IC50 in assay [1] was 25 to 100 nM; in assay [2], 100 to 1000 nM.
In the same order, the values of `CS(=O)(=O)c1cccc(CN2CCOc3ccc(C(=O)NO)cc32)c1` [Compound I-125, N-hydroxy-4-(3-(methylsulfonyl)benzyl)-3,4-dihydro-2H-benzo[b][1,4]oxazine-6-carboxamide] are 25 to 100 nM and 100 to 1000 nM.
As for `CC(c1ccc(S(C)(=O)=O)cc1)N1CCOc2ccc(C(=O)NO)cc21` (stereo not shown) [Compound I-135, N-hydroxy-4-(1-(4-(methylsulfonyl)phenyl)ethyl)-3,4-dihydro-2H-benzo[b][1,4]oxazine-6-carboxamide], the IC50 in assay [1] and in assay [2] was 25 to 100 nM in each case.
Take `COc1ccc(CN2C(=O)COc3ccc(C(=O)NO)cc32)cc1` [Compound I-141, N-hydroxy-4-(4-methoxybenzyl)-3-oxo-3,4-dihydro-2H-benzo[b][1,4]oxazine-6-carboxamide]: the IC50 in assay [1] is at most 25 nM; in assay [2], under 25 nM.
In the same order, the values of `CS(=O)(=O)c1ccc(CN2C(=O)COc3ccc(C(=O)NO)cc32)cc1` [Compound I-142, N-hydroxy-4-(4-(methylsulfonyl)benzyl)-3-oxo-3,4-dihydro-2H-benzo[b][1,4]oxazine-6-carboxamide] are at most 25 nM and under 25 nM.
Regarding `O=C(NO)c1ccc2c(c1)N(Cc1cccc(Cl)c1)C(=O)CO2` [Compound I-143, 4-(3-chlorobenzyl)-N-hydroxy-3-oxo-3,4-dihydro-2H-benzo[b][1,4]oxazine-6-carboxamide], the IC50 in assay [1] is at most 25 nM; in assay [2], under 25 nM.
As for `CS(=O)(=O)c1cccc(CN2C(=O)COc3ccc(C(=O)NO)cc32)c1` [Compound I-145, N-hydroxy-4-(3-(methylsulfonyl)benzyl)-3-oxo-3,4-dihydro-2H-benzo[b][1,4]oxazine-6-carboxamide], the IC50 in assay [1] and in assay [2] was 25 to 100 nM each time.
